# Test results reported in US5698567A, “Heterocyclic spiro compounds” (Adir Et Compagnie, priority 1995, dated 1997).
# Where a name gives a salt, the structure may show the parent alone.
# Experiments:
# [1] = tested on: synthesis of PGE2 by the peritoneal PMN of rats; experiment: Inhibition of the synthesis of PGE2 by the peritoneal PMN of rats in vitro; assay type: cell-based, rat; settings: A23187; for IC50: rat peritoneal PMN in vitro; for inhibition at 100 µM: 10^-4 M; for inhibition at 100 µM / inhibition at 10 µM: rat peritoneal PMN; for inhibition at 10 µM: 10^-5 M
# Procedure: (§1) 5-Lipoxygenase-inhibiting activity was determined on peritoneal leukocytes of rats. Leukocytosis is induced in male OFA rats (IFFA CREDO) weighing 200-250 g by the intraperitoneal injection of 12% sodium caseinate. 18 hours later, the cells are collected by washing the abdominal cavity. The number of cells is adjusted to 2×10^6 /ml.
# (§2) The cell suspension is incubated for 10 minutes at 37° C. in the presence of Ca^2+ 5×10^-4 M and Mg^2+ 2×10^-3 M and of various concentrations of the test products. The cells are then stimulated with the calcium ionophore A23187 at a concentration of 10^-6 M for 5 minutes at 37° C. Controls are carded out by incubating the cells with the solvent for the products: 2% DMSO.
# (§3) Metabolism of arachidonic acid by the peritoneal PMN of rats stimulated
# (§4) for 5 minutes in vitro by the calcium ionophore (A23187): 10^-6 M.
# (§5) Incubation of the products with the cells for 10 minutes prior to
# (§6) stimulation with the ionophore.
# 5-lipoxygenase [2] = experiment: Inhibition of the synthesis of LTB4 by the peritoneal PMN of rats in vitro (5-lipoxygenase-inhibiting activity); assay type: cell-based, rat; settings: for LTB4 % Inhibition: rat peritoneal PMN; for LTB4 % Inhibition / IC50: A23187 10^-6 M; for IC50: rat peritoneal PMN in vitro
# Text: 1.1 Determination of 5-1ipoxygenase-inhibiting activity in vitro (see Goldyne M. E., Burrish G. F., Poubelle P. and Borgeat P., Arachidonic Acid Metabolism among human mononuclear leukocytes. The Journal of Biological Chemistry. Vol. 259, N° 4, p. 8815-8819, 1984, and New Chang C. and Gin Wensu. Stimulation of 5-Lipoxygenase Activity in Polymorphonuclear Leukocytes of Rats by Caseinate Treatment. Biochemical Pharmacology. Vol. 36, N° 8, p. 3033-3036, 1987).
# as §1, §2
# After stopping the reaction at +4° C. and centrifugation, the quantity of LTB4 in ng/2×10^6 cells in the supernatants is determined by the E.I.A. method (Statlergenes France). The percentage inhibition is calculated as follows: [formula]
# as §3, §4, §5, §6
# 5-lipoxygenase [3] = experiment: Inhibition of the synthesis of LTB4 in total blood of rats ex vivo (5-lipoxygenase-inhibiting activity); parameters: species or system rat; settings: 60 μmol/kg p.o., 1 h; A23187 5 × 10^-5 M, n = 8
# Procedure: 1.2 Determination of 5-lipoxygenase-inhibiting activity ex vivo (see Brideau C., Chan C., Charleson S., Denis D. et al. Pharmacology of MK-0591 (3-[1-(4-chlorobenzyl)-3-(t-butyl-thio)-5(quinolin-2-yl-methoxy)-indol-2-yl]-2,2-dimethyl propanoic acid), a Potent, Orally Active Leukotriene Biosynthesis Inhibitor. Can. J. Physiol. Pharmacol. Vol. 70, p. 799-807, 1992).
# Inhibition of the biosynthesis of leukotrienes ex vivo following oral administration of the compounds was determined by studying the production of leukotrienes on total blood of rats stimulated in vitro by the calcium ionophore at time 1 hour after oral administration of the compounds.
# The various products are administered in suspension in hydroxyethylcellulose: 0.5% H.E.C. at a dose of 60 μmol/kg. Each product is studied on a group of 8 different animals. A control group receives 0.5% H.E.C. only. After intracardial removal of the blood from each rat (male Sprague Dawley rats weighing 150-200 g IFFA CREDO), 1 ml of heparinised blood is incubated with the calcium ionophore A23 187 at a concentration of 5×10^-5 M for 10 minutes at 37° C. The blood is then centrifuged immediately and 100 μl of plasma are extracted in 400 μl of methanol. After centrifugation, the supernatant is evaporated to dryness under N2, the dry residue is taken up in buffer solution, and the LTB4 is assayed by the E.I.A. method (Stallergenes France).
# The percentage inhibition is expressed as follows: [formula] 2/Results
# Average relative to all controls n = 31
# Products administered p.o. 1 hour before removal of blood n = 8
# Total blood of rats stimulated for 10 minutes in vitro by the calcium
IC50 (5-lipoxygenase [2]) [nM],Structure (SMILES),LTB4 % Inhibition (5-lipoxygenase [2]; 10^-6 M) [%],LTB4 % Inhibition (5-lipoxygenase [2]; 10^-7 M) [%],also measured
,"O=C1NCC2(CCN(CC(O)c3ccc(OCc4ccc5ccccc5n4)cc3)CC2)O1 (racemic) [Example 5, (R,S)-8-{2-hydroxy-2-[4-(quinol-2-ylmethoxy)phenyl]ethyl}-3,8-diaza-1-oxa-2-oxospiro[4,5]decane]",95,15,IC50 [1]: > 100000 nM
,"O=C1NCC2(CCN(CC(c3ccccc3)c3ccc(OCc4ccc5ccccc5n4)cc3)CC2)O1 (racemic) [Example 6, (R,S)-8-{2-phenyl-2-[4-(quinol-2-ylmethoxy)phenyl]ethyl}-3,8-diaza-1-oxa-2-oxospiro[4,5]decane]",100,93,inhibition at 100 µM [1]: 88%; inhibition at 10 µM [1]: 3%; % Inhibition of the synthesis of LTB4 in total blood of rats ex vivo (5-lipoxygenase [3]): 64%; LTB4 % Inhibition (5-lipoxygenase [2]; 4.10^-8 M): 60%; LTB4 % Inhibition (5-lipoxygenase [2]; 10^-8 M): 21%
> 1000,"O=C1NCC2(CCN(CC(c3ccccc3)c3ccc(OCc4ccc5ccccc5c4)cc3)CC2)O1 (racemic) [Example 7, (R,S)-8-{2-[4-(naphth-2-ylmethoxy)phenyl]-2-phenylethyl}-3,8-diaza-1-oxa-2-oxospiro[4,5]decane]",,36,
> 100,"O=C1NCC2(CCN(CC(c3ccccc3)c3ccc(OCc4ccc(-c5ccccc5)cn4)cc3)CC2)O1 (racemic) [Example 9, (R,S)-8-{2-phenyl-2-[4-(5-phenylpyrid-2-ylmethoxy)phenyl]ethyl}-3,8-diaza-1-oxa-2-oxospiro[4,5]decane]",,,
> 100,"c1ccc(C(CN2CCC3(CC2)OCCO3)c2ccc(OCc3ccc4ccccc4n3)cc2)cc1 (racemic) [Example 10, (R,S)-8-{2-phenyl-2-[4-(quinol-2-ylmethoxy)phenyl]ethyl}-8-aza-1,4-dioxaspiro[4,5]decane dihydrochloride]",,28,LTB4 % Inhibition (5-lipoxygenase [2]; 10^-5 M): 92%
> 100,"O=C1NC2(CCN(CC(c3ccccc3)c3ccc(OCc4ccc5ccccc5n4)cc3)CC2)CO1 (racemic) [Example 11, (R,S)-8-{2-phenyl-2-[4-(quinol-2-ylmethoxy)phenyl]ethyl}-1,8-diaza-3-oxa-2-oxospiro[4,5]decane]",,38,LTB4 % Inhibition (5-lipoxygenase [2]; 10^-5 M): 76%
100,"O=C1OC2(CCN(CC(c3ccccc3)c3ccc(OCc4ccc5ccccc5n4)cc3)CC2)CN1CCc1ccccc1 (racemic) [Example 12, (R,S)-3-(2-phenylethyl)-8-{2-phenyl-2-[4-(quinol-2-ylmethoxy)phenyl]ethyl}-3,8-diaza-1-oxa-2-oxospiro[4,5]decane]",,53,inhibition at 100 µM [1]: 86%; inhibition at 10 µM [1]: 92%; IC50 [1]: < 10000 nM; LTB4 % Inhibition (5-lipoxygenase [2]; 10^-5 M): 98%
> 100,"CC1NC(=O)OC12CCN(CC(c1ccccc1)c1ccc(OCc3ccc4ccccc4n3)cc1)CC2 (racemic) [Example 13, (R,S), (R,S)-4-methyl-8-{2-phenyl-2-[4-quinol-2-ylmethoxy)phenyl]ethyl}-3,8-diaza-1-oxa-2-oxospiro[4,5]decane]",,21,LTB4 % Inhibition (5-lipoxygenase [2]; 10^-5 M): 91%
> 1000,"O=C1NCC2(CCN(C(c3ccccc3)c3ccc(OCc4ccc5ccccc5c4)cc3)CC2)O1 (racemic) [Example 23, (R,S)-8-{[4-(naphth-2-ylmethoxy)phenyl]phenylmethyl}-3,8-diaza-1-2-oxospiro[4,5]decane]",,9,
,"Cn1c(=O)ccc2cc(COc3ccc(C(c4ccccc4)N4CCC5(CC4)CNC(=O)O5)cc3)ccc21 (racemic) [Example 25, (R,S)-8-{[4-(1-methyl-2-oxo-1H-quinol-6-ylmethoxy)phenyl]phenylmethyl}-3,8-diaza-1-oxa-2-oxospiro[4,5]decane]",7,8,
> 100,"O=C1NCC2(CCN(C(c3ccccc3)c3ccc(OCc4ccc(-c5ccccc5)cn4)cc3)CC2)O1 (racemic) [Example 26, (R,S)-8-{phenyl-[4-(5-phenylpyrid-2-ylmethoxy)phenyl]methyl}-3,8-diaza-1-oxa-2-oxospiro[4,5]decane]",,,
> 1000,"O=C1NCC2(CCN(CC(Cc3ccccc3)c3ccc(OCc4ccccc4)cc3)CC2)O1 (racemic) [Example 31, (R,S)-8-[2-(4-benzyloxyphenyl)-3-phenylpropyl]-3,8-diaza-1-oxa-2-oxospiro[4,5]decane hydrochloride]",16,,
> 1000,"O=C1NCC2(CCN(CC(Cc3ccc(Cl)cc3)c3ccc(OCc4ccc(-c5ccccc5)cn4)cc3)CC2)O1 (racemic) [Example 35, (R,S)-8-{3-(4-chlorophenyl)-2-[4-(5-phenylpyrid-2-ylmethoxy)phenyl]propyl}-3,8-diaza-1-oxa-2-oxospiro[4,5]decane]",,,
> 100,"O=C1NCC2(CCN(CC(c3ccc(OCc4ccc5ccccc5n4)cc3)C3CCCC3)CC2)O1 (racemic) [Example 36, (R,S)-8-{2-cyclopentyl-2-[4-(quinol-2-ylmethoxy)phenyl]ethyl}-3,8-diaza-1-oxa-2-oxospiro[4,5]decane hydrochloride]",,,
> 100,"O=C1NCC2(CCN(C(=O)C(c3ccc(OCc4ccc5ccccc5n4)cc3)C3CCCC3)CC2)O1 (racemic) [Example 43, (R,S)-8-{cyclopentyl-[4-(quinol-2-ylmethoxy)phenyl]acetyl}-3,8-diaza-1-oxa-2-oxospiro[4,5]decane hydrochloride]",,8,
,"O=C1NCC2(CCN(CCc3ccc(OCc4ccc5ccccc5n4)cc3)CC2)O1 [Example 2, 8-{2-[4-(quinol-2-ylmethoxy)phenyl]ethyl}-3,8-diaza-1-2-oxospiro[4,5]decane]",90,,inhibition at 100 µM [1]: 23%; IC50 [1]: > 100000 nM
> 100000,"Cn1c(=O)ccc2cc(COc3ccc(CCN4CCC5(CC4)CNC(=O)O5)cc3)ccc21 [Example 3, 8-{2-[4-[(1-methyl-2-oxo-1H-quinol-6-yl)methoxy]phenyl]ethyl}-3,8-diaza-1-oxa-2-oxospiro[4,5]decane]",,,
> 1000,"O=C1NCC2(CCN(CC(=O)c3ccc(OCc4ccc5ccccc5n4)cc3)CC2)O1 [Example 28, 8-{2-oxo-2-[4-(quinol-2-ylmethoxy)phenyl]ethyl}-3,8-diaza-1-oxa-2-oxospiro[4,5]decane]",37,,
> 1000,"O=C1NCC2(CCN(C(=O)Cc3ccc(OCc4ccc5ccccc5n4)cc3)CC2)O1 [Example 29, 8-{[4-(quinol-2-ylmethoxy)phenyl]acetyl}-3,8-diaza-1-oxa-2-oxospiro[4,5]decane]",18,30,
> 1000,"O=C1NCC2(CCN(C(=O)c3ccc(OCc4ccc5ccccc5n4)cc3)CC2)O1 [Example 30, 8-[4-(quinol-2-ylmethoxy)benzoyl]-3,8-diaza-1-oxa-2-oxospiro[4,5]decane]",14,,
,"O=C1NCC2(CCN(CCc3ccccc3)CC2)O1 [fenspiride, 8(2-phenylethyl)-3,8-diaza-1-oxa-2-oxospiro[4,5]decane, reference compound]",,,activity of reference product tested under the same conditions (Table 1) (5-lipoxygenase [2]; 10^-4 M): inactive
